Results: US7928140B2, “Benzothiazole PI3 kinase modulators for cancer treatment” (Amgen Inc., priority 2007, dated 2011)
Like-named read-outs stand apart in the source and are kept apart here.

Key:
[1] = biological target: T1, PI3K β (Homo sapiens, UniProt P42338); experiment: In vitro PI3 kinase enzyme assay (beta), ATP loss, bioluminescence; type: biochemical; conditions: read-out: PI3Kβ ATP loss IC50;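 further: purified p110β/p85 heterodimer with PtdIns(4,5)P2 as acceptor, incubated at room temperature, leftover ATP read by luminescence, inhibition scaled to compound-free wells with and without enzyme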
T1 construct: Full length p110 subunits of PI3K α, β and δ, N-terminally labeled with polyHis tag; polyHis (N); made in house; host or cells: Sf9 insect cells (baculovirus)
Description: Full length p110 subunits of PI3K α, β and δ, N-terminally labeled with polyHis tag, were co-expressed with p85 in baculovirus expression vectors in sf9 insect cells. P110/p85 heterodimers were purified by sequential Ni-NTA, Q-HP, and Superdex-100 chromatography. Purified α, β and δ isozymes were stored at −20° C. in 20 mM Tris, pH 8, 0.2M NaCl, 50% glycerol, 5 mM DTT, 2 mM Na cholate.
PI3K enzyme assays (alpha, beta, delta and gamma) were performed in 25 mL with the above final concentrations of components in white polypropylene plates (Costar catalogue #3355). Phosphatidyl inositol phosphoacceptor, PtdIns(4,5)P2 (eg. P4508) was obtained from Echelon Biosciences. The ATPase activity of the alpha and gamma isozymes was not greatly stimulated by PtdIns(4,5)P2 under these conditions and was therefore omitted from the assay of these isozymes. Test compounds were dissolved in DMSO and diluted with three-fold serial dilutions. The compound in DMSO (1 μL) was added per test well, and the inhibition relative to reactions containing no compound, with and without enzyme was determined. After assay incubation at RT, the reaction was stopped and residual ATP determined by addition of an equal volume of a commercial ATP bioluminescence kit (Perkin Elmer EasyLite) according to the manufacturer's instructions, and detected using an Analyst GT luminometer.

[2] = biological target: T2, PI3K α (Homo sapiens, UniProt P42336); experiment: In vitro PI3 kinase enzyme assay (alpha), ATP loss, bioluminescence; type: biochemical; conditions: read-out: PI3Kα ATP loss IC50;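 further: purified p110α/p85 heterodimer acting on PtdIns(4,5)P2 at room temperature, remaining ATP read by luminescence, inhibition scaled between compound-free wells with and without enzyme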
T2 construct: Full length p110 subunits of PI3K α, β and δ, N-terminally labeled with polyHis tag; polyHis (N); made in house; host or cells: Sf9 insect cells (baculovirus)

[3] = tested on: phosphorylation of Serine 473 in Akt, HCT 116 human colon carcinoma cells; experiment: Cell-based phospho-AKT Ser473 assay (MSD sandwich immunoassay, IGF-1 stimulated); conditions: Homo sapiens
Outline: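 HCT116 cells, 16,000/well and plated overnight, were pre-treated with serially diluted compound for 2 h at 37 °C, then stimulated with IGF-1 at 100 ng/ml for 15 min. Lysates were assayed for Akt pSer473 by MSD sandwich electrochemiluminescence, and IC50 was derived from dose-response data.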

[4] = HCT-116, HCT 116 cells, read-out: HCT 116 pAKT IC50

T1 sequence (P42338 whole entry): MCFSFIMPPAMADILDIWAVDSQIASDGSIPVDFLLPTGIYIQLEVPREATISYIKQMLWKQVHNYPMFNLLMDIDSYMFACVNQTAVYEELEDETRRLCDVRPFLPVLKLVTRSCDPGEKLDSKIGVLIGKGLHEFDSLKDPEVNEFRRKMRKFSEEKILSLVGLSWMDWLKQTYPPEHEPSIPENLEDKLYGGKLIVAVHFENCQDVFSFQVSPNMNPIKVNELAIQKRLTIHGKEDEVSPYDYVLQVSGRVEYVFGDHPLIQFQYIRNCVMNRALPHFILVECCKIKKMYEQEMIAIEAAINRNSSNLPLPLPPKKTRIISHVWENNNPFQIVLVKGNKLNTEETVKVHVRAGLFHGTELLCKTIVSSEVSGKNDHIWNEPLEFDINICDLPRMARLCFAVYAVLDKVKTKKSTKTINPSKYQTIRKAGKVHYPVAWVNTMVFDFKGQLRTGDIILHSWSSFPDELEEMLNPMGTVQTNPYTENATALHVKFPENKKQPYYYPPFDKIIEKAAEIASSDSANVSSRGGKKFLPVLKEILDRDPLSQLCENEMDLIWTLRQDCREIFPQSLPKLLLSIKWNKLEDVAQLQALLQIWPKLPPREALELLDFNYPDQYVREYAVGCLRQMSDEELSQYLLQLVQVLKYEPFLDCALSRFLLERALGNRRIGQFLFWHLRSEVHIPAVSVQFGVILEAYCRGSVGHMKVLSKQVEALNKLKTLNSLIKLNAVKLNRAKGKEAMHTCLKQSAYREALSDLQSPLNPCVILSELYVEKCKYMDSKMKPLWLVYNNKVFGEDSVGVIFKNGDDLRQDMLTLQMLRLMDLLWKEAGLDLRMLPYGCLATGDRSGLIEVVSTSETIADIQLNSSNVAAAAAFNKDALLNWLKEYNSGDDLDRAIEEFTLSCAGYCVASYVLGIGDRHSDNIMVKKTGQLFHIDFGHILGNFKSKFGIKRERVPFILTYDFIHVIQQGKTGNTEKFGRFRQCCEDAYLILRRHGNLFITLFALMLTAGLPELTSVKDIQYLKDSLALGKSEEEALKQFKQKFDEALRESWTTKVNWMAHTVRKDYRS
T1 sequence (P27986 whole entry partner): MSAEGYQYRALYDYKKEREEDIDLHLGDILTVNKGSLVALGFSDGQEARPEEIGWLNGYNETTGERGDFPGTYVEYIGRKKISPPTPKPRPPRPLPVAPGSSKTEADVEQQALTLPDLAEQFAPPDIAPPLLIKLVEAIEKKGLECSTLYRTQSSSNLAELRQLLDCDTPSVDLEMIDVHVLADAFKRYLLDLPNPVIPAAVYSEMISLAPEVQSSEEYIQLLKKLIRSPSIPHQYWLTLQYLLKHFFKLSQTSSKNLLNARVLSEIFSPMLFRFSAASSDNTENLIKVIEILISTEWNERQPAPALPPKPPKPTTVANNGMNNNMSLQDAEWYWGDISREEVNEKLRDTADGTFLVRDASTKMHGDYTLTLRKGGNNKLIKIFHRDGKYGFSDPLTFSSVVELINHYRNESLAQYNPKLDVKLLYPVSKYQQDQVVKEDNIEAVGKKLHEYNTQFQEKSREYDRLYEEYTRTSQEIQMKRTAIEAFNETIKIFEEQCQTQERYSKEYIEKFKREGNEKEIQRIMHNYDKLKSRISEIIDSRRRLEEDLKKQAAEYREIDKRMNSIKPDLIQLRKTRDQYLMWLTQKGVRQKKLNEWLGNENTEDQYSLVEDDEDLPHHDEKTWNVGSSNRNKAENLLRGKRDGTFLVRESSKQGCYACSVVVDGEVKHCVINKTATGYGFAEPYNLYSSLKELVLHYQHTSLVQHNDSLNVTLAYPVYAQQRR
T2 sequence (P42336 whole entry, species assumed): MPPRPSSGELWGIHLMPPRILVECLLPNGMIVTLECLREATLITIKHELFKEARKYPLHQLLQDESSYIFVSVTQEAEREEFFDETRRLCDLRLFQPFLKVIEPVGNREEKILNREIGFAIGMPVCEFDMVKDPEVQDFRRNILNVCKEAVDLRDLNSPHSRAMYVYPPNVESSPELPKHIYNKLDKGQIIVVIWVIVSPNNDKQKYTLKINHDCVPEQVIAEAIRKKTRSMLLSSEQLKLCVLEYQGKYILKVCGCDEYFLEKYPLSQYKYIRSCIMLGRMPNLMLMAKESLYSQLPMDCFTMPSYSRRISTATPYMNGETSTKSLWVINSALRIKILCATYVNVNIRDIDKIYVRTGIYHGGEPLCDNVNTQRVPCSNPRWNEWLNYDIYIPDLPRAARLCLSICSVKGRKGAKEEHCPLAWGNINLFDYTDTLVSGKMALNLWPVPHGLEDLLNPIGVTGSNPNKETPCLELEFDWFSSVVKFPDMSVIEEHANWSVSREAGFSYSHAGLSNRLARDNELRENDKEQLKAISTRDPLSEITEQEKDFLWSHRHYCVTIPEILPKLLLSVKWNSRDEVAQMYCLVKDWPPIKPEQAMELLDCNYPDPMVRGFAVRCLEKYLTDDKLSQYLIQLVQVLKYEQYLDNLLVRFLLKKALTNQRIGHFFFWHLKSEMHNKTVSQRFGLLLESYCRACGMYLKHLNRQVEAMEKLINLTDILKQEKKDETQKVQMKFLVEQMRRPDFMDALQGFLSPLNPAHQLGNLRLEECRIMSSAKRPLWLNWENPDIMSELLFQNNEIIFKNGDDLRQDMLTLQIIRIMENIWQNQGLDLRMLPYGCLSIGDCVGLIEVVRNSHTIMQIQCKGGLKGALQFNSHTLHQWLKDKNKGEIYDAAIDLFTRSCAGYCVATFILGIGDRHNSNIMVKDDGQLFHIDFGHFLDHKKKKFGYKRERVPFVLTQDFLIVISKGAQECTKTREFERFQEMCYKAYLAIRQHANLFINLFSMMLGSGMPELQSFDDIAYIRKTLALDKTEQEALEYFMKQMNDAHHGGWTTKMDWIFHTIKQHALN
T2 sequence (P27986 whole entry partner, species assumed): as the sequence (P27986 whole entry partner) above

Structure (SMILES): CNc1nc2ccc(-c3cnc(Cl)c(NS(=O)(=O)c4ccc(C(C)(C)NC(C)=O)cc4)c3)cc2s1 [Example 322, N-(1-(4-((2-chloro-5-(2-(methylamino)-1,3-benzothiazol-6-yl)-3-pyridinyl)sulfamoyl)phenyl)-1-methylethyl)acetamide]
- IC50 [1]: 0.0254 µM
- IC50 [2]: 0.0108 µM
- IC50 [3, 4]: 0.557 µM

Structure (SMILES): CC(=O)Nc1nc2ccc(-c3cncc(NS(=O)(=O)c4cccc(F)c4)c3)cc2s1 [Example 199, N-(6-(5-(3-fluorophenylsulfonamido)pyridin-3-yl)benzo[d]thiazol-2-yl)acetamide]
- IC50 [1]: 0.0103 µM
- IC50 [2]: 0.0038 µM
- IC50 [3, 4]: 0.075 µM

Structure (SMILES): CC(=O)Nc1nc2ccc(-c3cnc(Cl)c(NS(=O)(=O)c4ccc(C(C)(C)O)cc4)c3)cc2s1 [Example 161, N-(6-(6-chloro-5-(4-(2-hydroxypropan-2-yl)phenylsulfonamido)pyridin-3-yl)benzo[d]thiazol-2-yl)acetamide]
- IC50 [1]: 0.0446 µM
- IC50 [2]: 0.0137 µM
- IC50 [3, 4]: 0.0041 µM

Structure (SMILES): Nc1nc2ccc(-c3cnc(Cl)c(NS(=O)(=O)c4ccc(F)cc4Cl)c3)cc2s1 [Example 309, N-(5-(2-amino-1,3-benzothiazol-6-yl)-2-chloro-3-pyridinyl)-2-chloro-4-fluorobenzenesulfonamide]
- IC50 [1]: 0.0368 µM
- IC50 [2]: 0.0149 µM
- IC50 [3, 4]: 0.496 µM

Structure (SMILES): COc1cccc(S(=O)(=O)Nc2nccc(-c3ccc4nc(NC(C)=O)sc4c3)n2)c1 [Example 85, N-(6-(2-(((3-methoxyphenyl)sulfonyl)amino)-4-pyrimidinyl)-1,3-benzothiazol-2-yl)acetamide]
- IC50 [1]: 0.0826 µM
- IC50 [2]: 0.0201 µM
- IC50 [3, 4]: 0.917 µM

Structure (SMILES): CNc1ncc(-c2ccc3nc(NC(C)=O)sc3c2)cc1NC(C)C [Example 147, N-(6-(5-(isopropylamino)-6-(methylamino)pyridin-3-yl)benzo[d]thiazol-2-yl)acetamide]
- IC50 [1]: 5.68 µM
- IC50 [2]: 0.149 µM
- IC50 [3, 4]: 0.44 µM

Structure (SMILES): COc1ccc(S(=O)(=O)N(C)c2cncc(-c3ccc4nc(NC(C)=O)sc4c3)n2)cc1 [Example 126, N-(6-(6-(((4-methoxyphenyl)sulfonyl)(methyl)amino)-2-pyrazinyl)-1,3-benzothiazol-2-yl)acetamide]
- IC50 [1]: 0.321 µM
- IC50 [2]: 0.0271 µM
- IC50 [3, 4]: 0.0806 µM

Structure (SMILES): Nc1nc2ccc(-c3cnc(Cl)c(NS(=O)(=O)c4ccc(Cl)cc4Cl)c3)cc2s1 [Example 310, N-(5-(2-amino-1,3-benzothiazol-6-yl)-2-chloro-3-pyridinyl)-2,4-dichlorobenzenesulfonamide]
- IC50 [1]: 0.0174 µM
- IC50 [2]: 0.0076 µM
- IC50 [3, 4]: 0.402 µM

Structure (SMILES): CC(=O)Nc1nc2ccc(-c3cncc(NS(=O)(=O)c4ccc(F)cc4)c3)nc2s1 [Example 228, N-(5-(5-(4-Fluorophenylsulfonamido)pyridin-3-yl)thiazolo[5,4-b]pyridin-2-yl)acetamide]
- IC50 [1]: 0.0559 µM
- IC50 [2]: 0.0075 µM
- IC50 [3, 4]: 0.0549 µM

Structure (SMILES): CC(=O)Nc1nc2ccc(-c3cncc(S(=O)(=O)c4ccccc4F)n3)cc2s1 [Example 121, N-(6-(6-((2-fluorophenyl)sulfonyl)-2-pyrazinyl)-1,3-benzothiazol-2-yl)acetamide]
- IC50 [1]: 0.496 µM
- IC50 [2]: 0.0191 µM
- IC50 [3, 4]: 0.19 µM

Structure (SMILES): CNc1nc2ccc(-c3cnc(Cl)c(NS(=O)(=O)c4ccc(F)cc4)c3)cc2s1 [Example 317, N-(2-chloro-5-(2-(methylamino)-1,3-benzothiazol-6-yl)-3-pyridinyl)-4-fluorobenzenesulfonamide]
- IC50 [1]: 0.0302 µM
- IC50 [2]: 0.0086 µM
- IC50 [3, 4]: 0.246 µM

Structure (SMILES): COc1cccc(S(=O)(=O)c2cccc(-c3ccc4nc(NC(C)=O)sc4c3)n2)c1 [Example 69, N-(6-(6-((3-methoxyphenyl)sulfonyl)-2-pyridinyl)-1,3-benzothiazol-2-yl)acetamide]
- IC50 [1]: 0.284 µM
- IC50 [2]: 0.0465 µM
- IC50 [3, 4]: 0.296 µM

Structure (SMILES): CC(=O)Nc1nc2ccc(-c3cnc(C)c(NS(=O)(=O)c4ccc(C(C)(C)C)cc4)c3)cc2s1 [Example 114, N-(6-(5-(((4-tert-butylphenyl)sulfonyl)amino)-6-methyl-3-pyridinyl)-1,3-benzothiazol-2-yl)acetamide]
- IC50 [1]: 0.0089 µM
- IC50 [2]: 0.007 µM
- IC50 [3, 4]: 0.0144 µM

Structure (SMILES): CC(=O)NC(C)(C)c1ccc(S(=O)(=O)Nc2cc(-c3ccc4nc(N)sc4c3)cnc2Cl)cc1 [Example 323, N-(1-(4-((5-(2-amino-1,3-benzothiazol-6-yl)-2-chloro-3-pyridinyl)sulfamoyl)phenyl)-1-methylethyl)acetamide]
- IC50 [1]: 0.0332 µM
- IC50 [2]: 0.0196 µM
- IC50 [3, 4]: 0.915 µM

Structure (SMILES): CC(=O)Nc1nc2ccc(-c3cnc(Cl)c(NS(=O)(=O)C4CCCCC4)c3)cc2s1 [Example 171, N-(6-(6-chloro-5-(cyclohexanesulfonamido)pyridin-3-yl)benzo[d]thiazol-2-yl)acetamide]
- IC50 [1]: 0.0263 µM
- IC50 [2]: 0.0032 µM
- IC50 ([3]; HCT-116, read-out: HCT 116 pAKT IC50): 0.0433 µM

Structure (SMILES): CN(C)CC(=O)Nc1nc2ccc(-c3cnc(Cl)c(N(C)C)c3)cc2s1 [Example 275, N-(6-(6-Chloro-5-(dimethylamino)pyridin-3-yl)benzo[d]thiazol-2-yl)-2-(dimethylamino)acetamide]
- IC50 [1]: 2.9 µM
- IC50 [2]: 0.311 µM
- IC50 [3, 4]: 0.616 µM

Structure (SMILES): CC(C)Nc1cc(-c2ccc3nc(NC(=O)Cc4ccccn4)sc3c2)cnc1Cl [Example 141, N-(6-(6-chloro-5-(isopropylamino)pyridin-3-yl)benzo[d]thiazol-2-yl)-2-(pyridin-2-yl)acetamide]
- IC50 [1]: 0.846 µM
- IC50 [2]: 0.0954 µM
- IC50 [3, 4]: 0.85 µM

Structure (SMILES): COc1ccc(S(=O)(=O)c2cncc(-c3ccc4nc(NC(C)=O)sc4c3)n2)cc1 [Example 120, N-(6-(6-((4-methoxyphenyl)sulfonyl)-2-pyrazinyl)-1,3-benzothiazol-2-yl)acetamide]
- IC50 [1]: 1.07 µM
- IC50 [2]: 0.0164 µM
- IC50 [3, 4]: 0.332 µM

Structure (SMILES): CNc1nc2ccc(-c3cnc(Cl)c(NS(=O)(=O)c4c(Cl)cccc4Cl)c3)cc2s1 [Example 319, 2,6-dichloro-N-(2-chloro-5-(2-(methylamino)-1,3-benzothiazol-6-yl)-3-pyridinyl)benzenesulfonamide]
- IC50 [1]: 0.0365 µM
- IC50 [2]: 0.0092 µM
- IC50 [3, 4]: 0.474 µM

Structure (SMILES): CC(=O)Nc1nc2ccc(-c3cccc(N(C)S(=O)(=O)c4ccccc4)n3)cc2s1 [Example 75, N-(6-(6-(methyl(phenylsulfonyl)amino)-2-pyridinyl)-1,3-benzothiazol-2-yl)acetamide]
- IC50 [1]: 0.338 µM
- IC50 [2]: 0.0825 µM
- IC50 [3, 4]: 0.221 µM

Structure (SMILES): CC(=O)Nc1nc2ccc(-c3ccnc(OCCCc4ccncc4)n3)cc2s1 [Example 44, N-(6-(2-(3-(4-pyridinyl)propoxy)-4-pyrimidinyl)-1,3-benzothiazol-2-yl)acetamide]
- IC50 [1]: 2.73 µM
- IC50 [2]: 0.0979 µM
- IC50 [3, 4]: 0.577 µM

Structure (SMILES): CC(=O)Nc1nc2ccc(-c3ccnc(OCCCn4ccnn4)n3)cc2s1 [Example 20, N-(6-(2-(3-(1H-1,2,3-triazol-1-yl)propoxy)-4-pyrimidinyl)-1,3-benzothiazol-2-yl)acetamide]
- IC50 [1]: 5.24 µM
- IC50 [2]: 0.266 µM
- IC50 [3, 4]: 1.93 µM

Structure (SMILES): CC(=O)Nc1nc2ccc(-c3cncc(NS(=O)(=O)c4ccccc4)c3)cc2s1 [Example 202, N-(6-(5-(phenylsulfonamido)pyridin-3-yl)benzo[d]thiazol-2-yl)acetamide]
- IC50 [1]: 0.0317 µM
- IC50 [2]: 0.0056 µM
- IC50 [3, 4]: 0.271 µM
